Non-standard residues stand in square brackets, D forms with d. Residues, ends and D or L forms follow the SMILES beside them. *: point of attachment. Tyr(Nα-amidino) = N=C(N)N[C@@H](Cc1ccc(O)cc1)C(=O)*; dNle = CCCC[C@@H](N)C(=O)O
Experiments:
Type in all cases: cell-based
guinea-pig ileum (GPI) [1] = assay: GPI assay according to Kosterlitz and Watt (opiate activity); conditions: guinea-pig ileum preparation; assay of Kosterlitz and Watt 1968; relative to normorphine = 1.0
Description: (§1) 39, 398 (1970)] and in mouse ves deferens (MVD) preparations [J. Hughes et al.: Br. J. Pharmacol. 53, 371 (1975)]. […] The figures represent the activities of compounds relative to […] (the activity of normorphine is taken as unity=1.0).
^a GPI assay according to Kosterlitz and Watt [Br.J. Pharmacol. 33,

guinea-pig ileum (GPI) [2] = assay: GPI assay according to Kosterlitz et al. (opiate activity); conditions: guinea-pig ileum preparation; assay of Kosterlitz et al. 1970; relative to normorphine = 1.0
Description: as §1
^b GPI assay according to Kosterlitz et al. [Br. J. Pharmacol. 39, 39

mouse vas deferens (MVD) = assay: MVD assay according to Hughes et al. (opiate activity); conditions: mouse vas deferens preparation; assay of Hughes et al. 1975; relative to normorphine = 1.0
Description: as §1
^c MVD assay according to Hughes et al. [Br. J. Pharmacol. 53, 371

SMILES | Opiate activity GPI^a (opiate activity of normorphine = 1.0) (guinea-pig ileum (GPI) [1]) | Opiate activity GPI^b (opiate activity of normorphine = 1.0) (guinea-pig ileum (GPI) [2]) | Opiate activity MVD^c (opiate activity of normorphine = 1.0) (mouse vas deferens (MVD))
CSCC[C@@H](NC(=O)[C@H](Cc1ccc(O)cc1)NC(=N)N)C(=O)NCC(=O)N[C@@H](Cc1ccccc1)C(N)=O [H2 N-C-(NH)-Tyr-D-Met-Gly-Phe-NH2, amidino-L-tyrosyl-D-methionyl-glycyl-L-phenylalanine amide] | 211 | 79 | 21
CC(=O)O.CSCC[C@@H](NC(=O)[C@@H](N)Cc1ccc(O)cc1)C(=O)NCC(=O)N[C@@H](Cc1ccccc1)C(N)=O.O [H-Tyr-D-Met-Gly-Phe-NH2, L-Tyrosyl-D-methionyl-glycyl-L-phenylalanine amide acetate hydrate] (H-Y[dM]GF-NH2) | 17 | 17 | 4
CC(=O)O.CSCC[C@@H](NC(=O)[C@@H](N)Cc1ccc(O)cc1)C(=O)NCC(=O)N[C@@H](Cc1ccccc1)C(=O)N1CCC[C@H]1C(N)=O.O.O.O [H-Tyr-D-Met-Gly-Phe-Pro-NH2, L-tyrosyl-D-methionyl-glycyl-L-phenylalanyl-proline amide acetate trihydrate] (H-Y[dM]GFP-NH2) | 8 | 8 | 8
CCCC[C@@H](NC(=O)[C@H](Cc1ccc(O)cc1)NC(=N)N)C(=O)NCC(=O)N[C@@H](Cc1ccccc1)C(N)=O [H2 N-C-(NH)-Tyr-D-Nle-Gly-Phe-NH2, amidino-L-tyrosyl-D-norleucyl-glycyl-L-phenylalanine amide] | 126 | 79 | 18
CC(=O)O.CCCC[C@@H](NC(=O)[C@@H](N)Cc1ccc(O)cc1)C(=O)NCC(=O)N[C@@H](Cc1ccccc1)C(=O)N1CCC[C@H]1C(N)=O.O [H-Tyr-D-Nle-Gly-Phe-Pro-NH2, L-Tyrosyl-D-norleucyl-glycyl-L-phenylalanyl-L-proline amide acetate hydrate] (H-Y[dNle]GFP-NH2) | 12 | 12 | 10
CCCC[C@@H](NC(=O)[C@H](Cc1ccc(O)cc1)NC(=N)N)C(=O)NCC(=O)N[C@@H](Cc1ccccc1)C(=O)N1CCC[C@H]1C(N)=O [H2 N-C-(NH)-Tyr-D-Nle-Gly-Phe-Pro-NH2, amidino-L-tyrosyl-D-norleucyl-glycyl-L-phenylalanyl-L-proline amide] ({Tyr(Nα-amidino)}-[dNle]GFP-NH2) | 79 | 21 | 17
CC(=O)O.CCCC[C@@H](NC(=O)[C@@H](N)Cc1ccc(O)cc1)C(=O)NCC(=O)N[C@@H](Cc1ccccc1)C(N)=O.O [H-Tyr-D-Nle-Gly-Phe-NH2, L-Tyrosyl-D-norleucyl-glycyl-L-phenylalanine amide acetate hydrate] (H-Y[dNle]GF-NH2) | 22 | 22 | 8
CSCC[C@@H](NC(=O)[C@H](Cc1ccc(O)cc1)NC(=N)N)C(=O)NCC(=O)N[C@@H](Cc1ccccc1)C(=O)N1CCC[C@H]1C(N)=O [H2 N-C-(NH)-Tyr-D-Met-Gly-Phe-Pro-NH2, amidino-L-tyrosyl-D-methionyl-glycyl-L-phenylalanyl-L-proline amide] ({Tyr(Nα-amidino)}-[dM]GFP-NH2) | 825 | 173 | 25

From patent publication US4288432A, “Novel enkephalin analogs and process for the preparation thereof” (Richter Gedeon Vegyeszeti Gyar Rt., priority 1979, dated 1981)
